Five compounds from patent US5376673A, “Isoindoles having cardiovascular activity” (Italfarmaco S.p.A., priority 1991, dated 1994) can be followed below.

The IC50 is the concentration that gives 50% inhibition.

One experiment concerns rabbit aorta. In words: In vitro vasorelaxing activity (aorta strip contracted with noradrenaline). Particulars: Oryctolagus cuniculus, contraction induced by noradrenaline. As for the experimental part: The vasorelaxing activity of the compounds of the invention was determined on rabbit aorta which had been contracted with noradrenaline, according to the method described in Eur. J. Pharmacol, 141, 195 (1987).
IC50 = concentration of active substance, expressed in mole/liter,
able to inhibit by 50% the contraction of the aorta "strip" induced by […]

For experiment [1], the system named is Sprague Dawley anaesthetized rats. As to the kind of experiment: Vasopressine angina in the anaesthetized rat (in vivo antianginal activity). As to conditions: 3 mg/kg by gastric gavage, 1 hour before Arg-vasopressin i.v. The arrangement: species or system Sprague Dawley rat. As for the experimental part: The in vivo antianginal activity was evidenced on Sprague Dawley anaesthetized rats, weighing 350-400 g, operating according to the procedure of M. Leitold et al., Arzneim. Forsch. 36, 1454, 1986. The test was carried out administering the animal intravenously with 1 I. U./kg, equivalent to […] of Arg-vasopressin, which induces a coronary spasm which can be reproduced and evidenced electrocardiographycally with an increase in the amplitude of the T wave. The compounds of the invention were admininistered by gastric gavage at a dose of 3 mg/kg, 1 hour before administration of Argvasopressin. The antianginal effect was expressed as percent inhibition of the T wave increase versus controls.

The compound `O=C1c2ccccc2C(O)N1CCO[N+](=O)[O-]` (centres unmarked) [Example 1, 3-Hydroxy-2-(2-nitrooxyethyl)-1-oxoisoindolin] gave a half-inhibitory concentration (IC50) in the experiment with rabbit aorta of 1.3 µM. Also, the “Effect (percent inhibition of the T wave increase versus controls)” value in experiment [1] was -56.1%.
`CC(=O)OC1c2ccccc2C(=O)N1CCO[N+](=O)[O-]` (centres unmarked) [Example 2, 3-Acetoxy-2-(2-nitrooxyethyl)-1-oxoisoindolin] showed a half-inhibitory concentration (IC50) with rabbit aorta of 1.2 µM.
As to `CCCC(=O)OC1c2ccccc2C(=O)N1CCO[N+](=O)[O-]` (centres unmarked) [Example 3], the 50% inhibitory concentration (IC50) with rabbit aorta was found to be 2.4 µM. In addition, in experiment [1], the “Effect (percent inhibition of the T wave increase versus controls)” value is listed as -55.2%.
For `O=C(OC1c2ccccc2C(=O)N1CCO[N+](=O)[O-])c1ccccc1` (centres unmarked) [Example 4, 3-Benzoyloxy-2-(5-nitrooxyethyl)-1-oxoisoindolin] the same measures were 3.2 µM and -34.5%.
`O=C1c2ccccc2C(O)N1CCCCCO[N+](=O)[O-]` (centres unmarked) [Example 5, 3-Hydroxy-2-(5-nitrooxypentyl)-1-oxoisoindolin] had a half-inhibitory concentration (IC50) in the experiment with rabbit aorta of 13 µM.
